Assay results: patent publication US11986487B2, “Mixture of HMOS for treating wheat sensitivity” (GLYCOM A/S, priority 2017, dated 2024)

Test system: human LS174T cell culture model of goblet cells
Assay: Goblet cell gene expression by quantitative RT-PCR
Assay type: cell-based
Settings: 5 mg HMO/ml, compared to control cultures
Experimental: 2′-FL and LNnT are tested with respect to their ability to induce MUC2, TFF3, EIMβ, CHST5, and GAL3ST2 expression in the human LS174T cell culture model of goblet cells. The human LS174T cell line is obtained from the American Type Culture Collection (ATCC). LS174T cells are maintained in minimum essential medium (MEM) supplemented according to instructions at 37° C. in air containing 5% of CO2. 2′-FL and LNnT are dissolved in cell culture grade water to the required concentration. The LS174T cells are treated with the HMO solution containing 0 or 5 mg HMO/ml. The LS174T cells are collected and suspended in Trizol reagent and total RNA is isolated using an RNA analysis kit (Qiagen) according to the manufacturer's instructions and the RNA isolates are quantified using Nanodrop analysis (Thermo Fisher Scientific). RNA isolates are reverse transcribed using a high capacity cDNA Reverse Transcription Kit (Applied Biosystems) to create cDNA, which is then used to assess gene expression via quantitative RT-PCR. For the quantitative RT-PCR, specific TaqMAN gene expression assays are obtained from Applied Biosystems, which include expression assays for MUC2, TFF3, CHST5 and GAL3ST2. Quantitative real-time PCR is performed using TaqMAN PCR Master Mix (Applied Biosystems). Reactions are run in duplicates in a 384-well plate using an Applied Biosystems 7900HT Fast Real-Time PCR System. The results are analysed using SDS 2.3 software and calculated by delta Ct method. All samples are normalized to Gus-β expression and fold induction is calculated over untreated controls. Gene expression is expressed as fold increase compared to HMO-free control cells. The experiment is repeated three times.

Molecule	expression of CHST5	expression of GAL3ST2	expression of the MUC2 gene	expression of the TFF3 gene
2′-fucosyllactose [2′-FL]	minimal induction	lack of induction	increases	increases
CC(=O)N[C@H]1[C@H](O[C@H]2[C@@H](O)[C@@H](CO)O[C@@H](O[C@H]3[C@H](O)[C@@H](O)C(O)O[C@@H]3CO)[C@@H]2O)O[C@H](CO)[C@@H](O[C@@H]2O[C@H](CO)[C@H](O)[C@H](O)[C@H]2O)[C@@H]1O (mixture of isomers) [LNnT, lacto-N-neotetraose]	minimal induction	lack of induction	increases	increases
